From paper doi:10.1101/2024.10.09.24315180v1, “Schizandrin A suppressed pancreatic cancer proliferation and cancer associated fibroblast activation via inhibiting the COX-2/ALOX5 shunting” (medrxiv, 2024) come the findings set out here.

Experiment [1] addresses T1, COX-2 (Homo sapiens, UniProt P35354).
T1 construct: gene PTGS2; immobilised on CM5 chip
T1 sequence (P35354 18-604): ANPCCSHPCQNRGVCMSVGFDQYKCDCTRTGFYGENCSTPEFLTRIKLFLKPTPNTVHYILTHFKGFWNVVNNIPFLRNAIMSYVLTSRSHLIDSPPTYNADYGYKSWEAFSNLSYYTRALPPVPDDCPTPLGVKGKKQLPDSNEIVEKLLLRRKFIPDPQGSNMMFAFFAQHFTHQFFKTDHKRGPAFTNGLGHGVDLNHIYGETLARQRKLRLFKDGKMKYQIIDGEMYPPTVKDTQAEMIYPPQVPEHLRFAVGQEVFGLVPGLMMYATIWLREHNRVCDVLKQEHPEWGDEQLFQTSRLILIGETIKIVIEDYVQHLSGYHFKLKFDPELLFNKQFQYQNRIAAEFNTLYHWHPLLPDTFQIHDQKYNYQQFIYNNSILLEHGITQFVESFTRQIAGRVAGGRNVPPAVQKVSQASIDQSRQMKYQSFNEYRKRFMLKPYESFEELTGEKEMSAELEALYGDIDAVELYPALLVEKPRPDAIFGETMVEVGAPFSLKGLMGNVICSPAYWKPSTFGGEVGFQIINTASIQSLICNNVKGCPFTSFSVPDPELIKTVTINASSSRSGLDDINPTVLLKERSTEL
In words: SPR, Biacore T200, CM5 chip, multi-cycle. The class given is binding. In general terms: In SPR one partner is held on a chip, and binding of the other changes the refractive index at the surface.

Experiment [2] addresses T2, ALOX5 (Homo sapiens, UniProt P09917).
T2 construct: immobilised on CM5 chip
T2 sequence (P09917 1-674): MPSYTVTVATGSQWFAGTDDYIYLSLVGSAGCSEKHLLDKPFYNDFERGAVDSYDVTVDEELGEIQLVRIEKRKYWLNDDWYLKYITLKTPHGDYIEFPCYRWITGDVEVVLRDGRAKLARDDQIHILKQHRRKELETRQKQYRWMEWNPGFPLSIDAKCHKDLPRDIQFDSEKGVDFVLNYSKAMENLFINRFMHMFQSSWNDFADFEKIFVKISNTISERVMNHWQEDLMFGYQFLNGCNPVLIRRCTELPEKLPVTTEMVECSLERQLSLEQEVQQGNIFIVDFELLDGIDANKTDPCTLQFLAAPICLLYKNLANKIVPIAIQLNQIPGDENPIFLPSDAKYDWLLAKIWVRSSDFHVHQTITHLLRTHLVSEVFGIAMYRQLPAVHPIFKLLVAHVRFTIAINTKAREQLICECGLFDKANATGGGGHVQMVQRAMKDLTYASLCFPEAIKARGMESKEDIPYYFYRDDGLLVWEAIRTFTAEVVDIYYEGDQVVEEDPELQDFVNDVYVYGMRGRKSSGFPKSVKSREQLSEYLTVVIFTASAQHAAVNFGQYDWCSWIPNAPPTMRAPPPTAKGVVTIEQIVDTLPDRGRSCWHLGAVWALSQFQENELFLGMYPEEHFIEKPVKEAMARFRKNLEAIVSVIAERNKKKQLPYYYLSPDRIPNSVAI
In words: SPR, Biacore T200, CM5 chip, multi-cycle. Format: binding.

Take `COc1cc2c(c(OC)c1OC)-c1c(cc(OC)c(OC)c1OC)C[C@H](C)[C@H](C)C2` [Schizandrin A]: the Kd (commonly the constant that tells how readily two partners part at equilibrium) in experiment [1] amounted to 14.8 µM; in experiment [2], 21.8 µM.
